Here are results for one compound from patent publication US11039614B2, “Solid herbicide compositions containing fluroxypyr-meptyl” (Dow AgroSciences LLC, priority 2015, dated 2021).

The nature of series [1]: Differential scanning calorimetry (DSC), degree of crystallinity. Format: physicochemical. An excerpt:
The coated herbicide powder and the water dispersible granule compositions described herein include coated, solid particles of fluroxypyr-meptyl that are largely or nearly completely in crystalline form. The degree of crystallinity of the solid particles of fluroxypyr-meptyl in these compositions (i.e., the weight percent of the fluroxypyr-meptyl that is in crystalline form) can be determined by differential scanning calorimetry (DSC) analysis and comparing the thermal properties of these compositions to a crystalline, non-coated sample of fluroxypyr-meptyl. In some embodiments, the coated particles of fluroxypyr-meptyl in these compositions have a degree of crystallinity that is at least about 70%, at least about 80%, at least about 90%, at least about 91%, at least about 92%, at least about 93%, at least about 94%, at least about 95%, at least about 96%, at least about 97%, at least about 98%, or at least about 99% and is reached within about one day, within about 2 days, within about 3 days, within about 4 days, within about 5 days, within about 6 days, or within about 7 days from the time of preparation of these solid compositions. […]
In general terms: In DSC, transitions show as peaks or steps in heat flow.

The conditions of series [2]: cited from earlier work.

Molecules are shown by their SMILES.

For `CCCCCCC(C)OC(=O)COc1nc(F)c(Cl)c(N)c1Cl` (centres unmarked) [Fluroxypyr-meptyl, 2-methylheptyl ester of 4-amino-3,5-dichloro-6-fluoro-2-pyridyloxyacetic acid], the “DSC Thermal Data: Heat Flow (absorbed)” value in series [1] came out at 70.01 J/g. The solubility in water in series [2] was < 1 ppm.
